≈ marks a conversion by molar mass, not a printed value. Where two headings read alike, the source gives them in different places.
What was measured:
HIV-1 = experiment: in vitro anti-HIV-1 assay: inhibition of the virus-induced cytopathic effect in MT-4 cells (MTT); type: cell-based; conditions: for S. I. (CD50 /ED50): Selectivity index = (CD50 /ED50)
Procedure: The in vitro anti-HIV-1 assays were based on the inhibition of the virus-induced cytopathic effect in MT-4 cells as described in J. Med. Chem, 34, 349 (1991).
First, MT-4 cells were suspended in a culture medium at a concentration of 1×10^4 cells/ml and infected with 500 TCID50 (50% cell culture infective dose)/well of HIV-1. Immediately after the virus infection, 100 μl of the cell suspension was brought into each well of a flat-bottomed microtiter tray containing various concentrations of the test compounds(1) to (21). After incubating for 4 or 5 days at 37° C., the number of viable cells was determined by the 3-(4,5-dimethylthiazol-2-yl)-2,5-diphenyltetrazolium bromide (MTT) method, as disclosed in J. Virol. Methods, 20, 309 (1988).

[1] = cytotoxicity: viability of mock-infected host (MT-4) cells (MTT); type: cell-based; conditions: human, Cytotoxic concentration that causes death of MT4 cells by 50%, MTT method, read-out: CD50 (the source's name)
Procedure: The cytotoxicity of the compounds of the present invention was assessed in parallel with their antiviral activity. It was based on the viability of mock-infected host cells as determined by the MTT methods (see J. Virol. Methods, 20, 309 (1988)). AZT was employed as a comparative compound.

[2] = Human immunodeficiency virus 1, MT4, Effective concentration for the inhibition of the proliferation of HIV by 50%, HIV-1-infected MT-4 cells, 4 or 5 days at 37° C., MTT method, read-out: ED50 (the source's name)
[3] = Human immunodeficiency virus 1, MT4, read-out: ED50

Compound | EC50 (HIV-1; [2]) [µg/mL] | CC50 [1] [µg/mL] | S. I. (CD50 /ED50) (HIV-1) | EC50 (HIV-1; [3]) [µg/mL]
CC(=O)OCCOCn1c(Oc2cc(C)cc(C)c2)c(C(C)C)c(=O)[nH]c1=O [Compound 10, 1-(2'-acetoxyethoxymethyl)-5-isopropyl-6-(3',5'-dimethylphenoxy)-2,4-pyrimidinedione] | 0.00351 (≈ 0.00899 µM) | 119 (≈ 304 µM) |  | 
CCOCn1c(C(=O)c2ccccc2)c(CC)c(=O)[nH]c1=O [Compound 15, 1-ethoxymethyl-5-ethyl-6-benzoyl-2,4-pyrimidinedione] | 0.043 (≈ 0.142 µM) | 103 (≈ 342 µM) |  | 
COCCOCn1c(C(=O)c2cc(C)cc(C)c2)c(C(C)C)c(=O)[nH]c1=O [Compound 21, 1-(2'-methoxyethoxymethyl)-5-isopropyl-6-(3',5'-dimethylbenzoyl)-2,4-pyrimidinedione] | 0.0119 (≈ 0.0318 µM) | 121 (≈ 324 µM) |  | 
Cc1cc(C)cc(C(=O)c2c(C(C)C)c(=O)[nH]c(=O)n2COCCO)c1 [Compound 20] | 0.00367 (≈ 0.0102 µM) | 51.7 (≈ 143 µM) |  | 
CCOCn1c(C(=O)c2cc(C)cc(C)c2)c(C(C)C)c(=O)[nH]c1=O [Compound 14, 1-ethoxymethyl-5-isopropyl-6-(3',5'-dimethylbenzoyl)-2,4-pyrimidinedione] | < 0.001 | 15.3 (≈ 44.5 µM) | > 15,330 | 
COCCOCn1c(Oc2cc(C)cc(C)c2)c(C(C)C)c(=O)[nH]c1=O [Compound 12, 1-(2'-methoxyethoxymethyl)-5-isopropyl-6-(3',5'-dimethylphenoxy)-2,4-pyrimidinedione] | 0.0106 (≈ 0.0291 µM) | 126 (≈ 348 µM) |  | 
CCOCn1c(Oc2cc(C)cc(C)c2)c(C(C)C)c(=O)[nH]c1=O [Compound 2, 1-ethoxymethyl-5-isopropyl-6-(3',5'-dimethylphenoxy)-2,4-pyrimidinedione] | < 0.00256 | 21.6 (≈ 64.9 µM) | > 8,425 | 
Cc1cc(C)cc(Oc2c(C(C)C)c(=O)[nH]c(=O)n2COCCO)c1 [Compound 11, 1-(2'-hydroxyethoxymethyl)-5-isopropyl-6-(3',5'-dimethylphenoxy)-2,4-pyrimidinedione] | 0.0107 (≈ 0.0308 µM) | 129 (≈ 370 µM) |  | 
Cc1cc(C)cc(C(=O)c2c(C(C)C)c(=O)[nH]c(=O)n2COCc2ccccc2)c1 [Compound 18, 1-benzyloxymethyl-5-isopropyl-6-(3',5 '-dimethylbenzoyl)-2,4-pyrimidinedione] | < 0.001 | 11.9 (≈ 29.3 µM) | > 11,920 | 
Cc1cn([C@H]2C[C@H](N=[N+]=[N-])[C@@H](CO)O2)c(=O)[nH]c1=O [AZT, 3'-azido-3'-deoxythymidine, reference compound] |  | 0.558 (≈ 2.09 µM) |  | 0.00116 (≈ 0.00434 µM)
CCOCn1c(Oc2cc(C)cc(C)c2)c(CC)c(=O)[nH]c1=O [Compound 1, 1-ethoxymethyl-5-ethyl-6-(3',5'-dimethylphenoxy)-2,4-pyrimidinedione] | < 0.001 | 84.7 (≈ 266 µM) | > 84,680 | 
CC(C)c1c(Oc2ccccc2)n(COCc2ccccc2)c(=O)[nH]c1=O [Compound 7, 1-benzyloxymethyl-5-isopropyl-6-phenoxy-2,4-pyrimidinedione] | < 0.001 | 10.2 (≈ 27.9 µM) | > 10,210 | 
CCOCn1c(C(=O)c2ccccc2)c(C(C)C)c(=O)[nH]c1=O [Compound 16, 1-ethoxymethyl-5-isopropyl-6-benzoyl-2,4-pyrimidinedione] | 0.0116 (≈ 0.0367 µM) | 88.7 (≈ 280 µM) |  | 
CCc1c(Oc2cc(C)cc(C)c2)n(COCCO)c(=O)[nH]c1=O [Compound 9] | 0.992 (≈ 2.97 µM) | 35.1 (≈ 105 µM) |  | 
CCc1c(Oc2cc(C)cc(C)c2)n(COCc2ccccc2)c(=O)[nH]c1=O [Compound 5, 1-benzyloxymethyl-5-ethyl-6-(3',5'-dimethylphenoxy)-2,4-pyrimidinedione] | < 0.00256 | 29.7 (≈ 78 µM) | > 11,585 | 
CC(C)c1c(C(=O)c2ccccc2)n(COCc2ccccc2)c(=O)[nH]c1=O [Compound 19, 1-benzyloxymethyl-5-isopropyl-6-benzoyl-2,4-pyrimidinedione] |  | 15.4 (≈ 40.8 µM) | > 15,450 | < 0.01
CCc1c(C(=O)c2cc(C)cc(C)c2)n(COCc2ccccc2)c(=O)[nH]c1=O [Compound 17, 1-benzyloxymethyl-5-ethyl-6-(3',5'-dimethylbenzoyl)-2,4-pyrimidinedione] |  | 1.05 (≈ 2.69 µM) | > 10,550 | < 0.001
CCOCn1c(Oc2ccccc2)c(CC)c(=O)[nH]c1=O [Compound 3, 1-ethoxymethyl-5-ethyl-6-phenoxy-2,4-pyrimidinedione] | < 0.001 | 16.6 (≈ 57.3 µM) | > 16,630 | 
CCOCn1c(C(=O)c2cc(C)cc(C)c2)c(CC)c(=O)[nH]c1=O [Compound 13, 1-ethoxymethyl-5-ethyl-6-(3',5'-dimethylbenzoyl)-2,4-pyrimidinedione] | < 0.001 | 5.86 (≈ 17.7 µM) | > 5,860 | 
CCOCn1c(Oc2ccccc2)c(C(C)C)c(=O)[nH]c1=O [Compound 4, 1-ethoxymethyl-5-isopropyl-6-phenoxy-2,4-pyrimidinedione] |  | 92 (≈ 302 µM) | > 5,111 | 0.018 (≈ 0.0591 µM)
CCc1c(Oc2cc(C)cc(C)c2)n(COCCOC(C)=O)c(=O)[nH]c1=O [Compound 8, 1-(2'-acetoxyethoxymethyl)-5-ethyl-6-(3',5'-dimethylphenoxy)-2,4-pyrimidinedione] | < 0.00256 | 9.52 (≈ 25.3 µM) | > 3,718 | 
Cc1cc(C)cc(Oc2c(C(C)C)c(=O)[nH]c(=O)n2COCc2ccccc2)c1 [Compound 6, 1-benzyloxymethyl-5-isopropyl-6-(3',5'-dimethylphenoxy)-2,4-pyrimidinedione] | < 0.00256 | 13.4 (≈ 34 µM) | > 5,246 | 

From patent publication US6136815A, “Antiviral 2,4-pyrimidinedione derivatives and process for the preparation thereof” (Korea Research Inst. of Chem. Tech., priority 1996, dated 2000)
